{"source": "patent US20240398817A1", "about": "“CARDIO- AND RENOSAFE ANTIDIABETIC THERAPY” (priority 2018, published 2024)", "test_system": "patients with type 2 diabetes at high vascular risk", "assay": "Cardiovascular and Renal Outcomes Trial: linagliptin 5 mg once daily vs placebo on top of standard of care", "assay_type": "in vivo", "conditions": "for Hazard ratio for hospitalised heart failure: vs placebo", "experimental": "The effect of linagliptin on cardiovascular risk in adult patients with type 2 diabetes mellitus and with increased CV risk evidenced by a history of established macrovascular or renal disease (e.g. as defined herein) was evaluated in a multi-center, multi-national, randomized, double-blind parallel group trial. The trial compared the risk of experiencing a major adverse cardiovascular event (MACE) between linagliptin and placebo when these were added to and used concomitantly with standard of care treatments for diabetes (HbA1c), cardiovascular risk factors and renal disease.\nThe primary endpoint in this trial was the time to first occurrence of three point (3P) MACE. A major adverse cardiac event was defined as a cardiovascular death or a nonfatal myocardial infarction (MI) or a nonfatal stroke. The statistical analysis plan tested for non-inferiority for the occurrence of (3P) MACE. […] The secondary endpoint was a renal composite, defined as renal death or sustained end stage renal disease or sustained decrease of 40% or more in eGFR.\nType 2 diabetes patient with insufficient glycemic control (naïve or pre-treated with any antidiabetic background medication, excluding treatment with GLP-1 receptor agonists, DPP-4inhibitors or SGLT-2 inhibitors if ≥consecutive 7 days, e.g. having HbA1c 6.5-10%), and high risk of cardiovascular events, e.g. defined by: • albuminuria (micro or macro) and previous macrovascular disease: e.g. defined according to Condition I as indicated below; • and/or • impaired renal function: e.g. as defined according to Condition II as indicated below;\nBackground and aims: People with type 2 diabetes (T2D) are at increased risk for hospitalization for heart failure (hHF), particularly in the setting of concomitant cardiovascular (CV) and/or kidney disease. […] Here we present analyses of HF outcomes with the DPP-4 inhibitor linagliptin (LINA) vs. placebo (PBO) from a Cardiovascular and Renal Outcomes Trial assessing cardiovascular safety and renal microvascular outcome in patients with type 2 diabetes at high vascular risk, a large CV outcomes trial that enrolled participants with T2D at high risk for hHF due to concomitant CV and/or chronic kidney disease. Materials and methods: People with T2D and concomitant CV and/or kidney disease were randomized to receive LINA 5 mg, or PBO once daily (1:1), on top of standard of care. All hHF, CV outcomes, and deaths were centrally adjudicated, with individual and composite HF-related outcomes analyses comparing LINA vs. placebo. Investigator-reported HF-related adverse events, whether or not confirmed by adjudication, were also analyzed. A Cox proportional hazards model adjusting for region and history of HF was used for analyses of first events. Recurrent hHF events were analyzed using a negative binomial model.\nMethods: The present Cardiovascular and Renal Outcomes Trial randomized people with T2D and i) concomitant CV disease with UACR >30 mg/g or ii) prevalent CKD (i.e. GFR <45 ml/min/1.73m2 and/or UACR >200 mg/g) to receive the DPP-4 inhibitor linagliptin (5 mg) or placebo once daily in a double-blind fashion. The primary CV endpoint was 3P-MACE, with a key secondary kidney endpoint (adjudicated ESKD, renal death, or sustained ≥40% decrease in eGFR from baseline) and other renal outcomes (including albuminuria and eGFR slope) also assessed. Subgroups were assessed by baseline kidney function (eGFR ≥/<45 ml/min/1.73m2and eGFR ≥/<30, 45 or 60 ml/min/1.73m2).\nAdults with type 2 diabetes, HbA1c 6.5-10.0% inclusive, and high CV risk were eligible for inclusion. […] Macrovascular disease eligibility criteria was based on documented and confirmed history of myocardial infarction, coronary artery disease, stroke, carotid artery disease, or peripheral artery disease. Participants with end-stage kidney disease (ESKD), defined as eGFR <15 or requiring maintenance dialysis, were excluded.", "key": {"[1]": {"conditions": "Duration of type 2 diabetes ≥10 years"}, "[2]": {"conditions": "Established macrovascular disease and albuminuria No"}, "[3]": {"conditions": "Established macrovascular disease and albuminuria Yes"}, "[4]": {"conditions": "Estimated glomerular filtration rate <30 mL/min/1.73 m^2"}, "[5]": {"conditions": "Estimated glomerular filtration rate ≥30 to <45 mL/min/1.73 m^2"}, "[6]": {"conditions": "Estimated glomerular filtration rate ≥45 to <60 mL/min/1.73 m^2"}, "[7]": {"conditions": "Estimated glomerular filtration rate ≥60 mL/min/1.73 m^2"}}, "data": [{"smiles": "CC#CCn1c(N2CCC[C@@H](N)C2)nc2c1c(=O)n(Cc1nc(C)c3ccccc3n1)c(=O)n2C", "note": "[Linagliptin, 1-[(4-methyl-quinazolin-2-yl)methyl]-3-methyl-7-(2-butyn-1-yl)-8-(3-(R)-amino-piperidin-1-yl)-xanthine]", "values": [{"measurement": "3-point MACE: patients with event/patients analyzed", "setting": "[1]", "value": "316/2277"}, {"measurement": "Key secondary kidney outcome: hazard ratio vs placebo", "setting": "[1]", "value": 0.97}, {"measurement": "Key secondary kidney outcome: patients with event/patients analyzed", "setting": "[1]", "value": "230/2277"}, {"measurement": "Patients with event/patients analysed, hospitalised heart failure", "setting": "[1]", "value": "149/2277"}, {"measurement": "Hazard ratio for hospitalised heart failure", "setting": "[1]", "value": 0.89}, {"measurement": "3-point MACE: hazard ratio vs placebo", "setting": "[2]", "value": 1.13}, {"measurement": "3-point MACE: patients with event/patients analyzed", "setting": "[2]", "value": "198/1486"}, {"measurement": "Key secondary kidney outcome: hazard ratio vs placebo", "setting": "[2]", "value": 1.03}, {"measurement": "Key secondary kidney outcome: patients with event/patients analyzed", "setting": "[2]", "value": "215/1486"}, {"measurement": "Patients with event/patients analysed, hospitalised heart failure", "setting": "[2]", "value": "96/1486"}, {"measurement": "Hazard ratio for hospitalised heart failure", "setting": "[2]", "value": 0.87}, {"measurement": "3-point MACE: hazard ratio vs placebo", "setting": "[3]", "value": 0.94}, {"measurement": "3-point MACE: patients with event/patients analyzed", "setting": "[3]", "value": "236/2008"}, {"measurement": "Key secondary kidney outcome: hazard ratio vs placebo", "setting": "[3]", "value": 1.11}, {"measurement": "Key secondary kidney outcome: patients with event/patients analyzed", "setting": "[3]", "value": "112/2008"}, {"measurement": "Patients with event/patients analysed, hospitalised heart failure", "setting": "[3]", "value": "113/2008"}, {"measurement": "Hazard ratio for hospitalised heart failure", "setting": "[3]", "value": 0.93}, {"measurement": "3-point MACE: hazard ratio vs placebo", "setting": "Established renal disease No", "value": 0.98}, {"measurement": "3-point MACE: patients with event/patients analyzed", "setting": "Established renal disease No", "value": "120/1385"}, {"measurement": "Key secondary kidney outcome: hazard ratio vs placebo", "setting": "Established renal disease No", "value": 1.20}, {"measurement": "Key secondary kidney outcome: patients with event/patients analyzed", "setting": "Established renal disease No", "value": "38/1385"}, {"measurement": "Patients with event/patients analysed, hospitalised heart failure", "setting": "Established renal disease No", "value": "47/1385"}, {"measurement": "Hazard ratio for hospitalised heart failure", "setting": "Established renal disease No", "value": 1.19}, {"measurement": "3-point MACE: hazard ratio vs placebo", "setting": "Established renal disease Yes", "value": 1.04}, {"measurement": "3-point MACE: patients with event/patients analyzed", "setting": "Established renal disease Yes", "value": "314/2109"}, {"measurement": "Key secondary kidney outcome: hazard ratio vs placebo", "setting": "Established renal disease Yes", "value": 1.00}, {"measurement": "Key secondary kidney outcome: patients with event/patients analyzed", "setting": "Established renal disease Yes", "value": "289/2109"}, {"measurement": "Patients with event/patients analysed, hospitalised heart failure", "setting": "Established renal disease Yes", "value": "162/2109"}, {"measurement": "Hazard ratio for hospitalised heart failure", "setting": "Established renal disease Yes", "value": 0.84}, {"measurement": "Patients with event/patients analysed, hospitalised heart failure", "setting": "[4]", "value": "59/516"}, {"measurement": "Hazard ratio for hospitalised heart failure", "setting": "[4]", "value": 0.94}, {"measurement": "Patients with event/patients analysed, hospitalised heart failure", "setting": "[5]", "value": "76/994"}, {"measurement": "Hazard ratio for hospitalised heart failure", "setting": "[5]", "value": 0.85}, {"measurement": "Patients with event/patients analysed, hospitalised heart failure", "setting": "[6]", "value": "38/690"}, {"measurement": "Hazard ratio for hospitalised heart failure", "setting": "[6]", "value": 1.06}, {"measurement": "Patients with event/patients analysed, hospitalised heart failure", "setting": "[7]", "value": "36/1294"}, {"measurement": "Hazard ratio for hospitalised heart failure", "setting": "[7]", "value": 0.88}, {"measurement": "3-point MACE: hazard ratio vs placebo", "setting": "Ethnicity Hispanic/Latino", "value": 1.13}, {"measurement": "3-point MACE: patients with event/patients analyzed", "setting": "Ethnicity Hispanic/Latino", "value": "143/1227"}, {"measurement": "Key secondary kidney outcome: hazard ratio vs placebo", "setting": "Ethnicity Hispanic/Latino", "value": 1.10}, {"measurement": "Key secondary kidney outcome: patients with event/patients analyzed", "setting": "Ethnicity Hispanic/Latino", "value": "156/1227"}, {"measurement": "Patients with event/patients analysed, hospitalised heart failure", "setting": "Ethnicity Hispanic/Latino", "value": "58/1227"}, {"measurement": "Hazard ratio for hospitalised heart failure", "setting": "Ethnicity Hispanic/Latino", "value": 0.96}, {"measurement": "3-point MACE: hazard ratio vs placebo", "setting": "Ethnicity Not Hispanic/Latino", "value": 0.97}, {"measurement": "3-point MACE: patients with event/patients analyzed", "setting": "Ethnicity Not Hispanic/Latino", "value": "291/2267"}, {"measurement": "Key secondary kidney outcome: hazard ratio vs placebo", "setting": "Ethnicity Not Hispanic/Latino", "value": 0.99}, {"measurement": "Key secondary kidney outcome: patients with event/patients analyzed", "setting": "Ethnicity Not Hispanic/Latino", "value": "171/2267"}, {"measurement": "Patients with event/patients analysed, hospitalised heart failure", "setting": "Ethnicity Not Hispanic/Latino", "value": "151/2267"}, {"measurement": "Hazard ratio for hospitalised heart failure", "setting": "Ethnicity Not Hispanic/Latino", "value": 0.87}, {"measurement": "3-point MACE: hazard ratio vs placebo", "setting": "Gender Female", "value": 0.96}, {"measurement": "3-point MACE: patients with event/patients analyzed", "setting": "Gender Female", "value": "152/1346"}, {"measurement": "Key secondary kidney outcome: hazard ratio vs placebo", "setting": "Gender Female", "value": 0.92}, {"measurement": "Key secondary kidney outcome: patients with event/patients analyzed", "setting": "Gender Female", "value": "117/1346"}, {"measurement": "Patients with event/patients analysed, hospitalised heart failure", "setting": "Gender Female", "value": "74/1346"}, {"measurement": "Hazard ratio for hospitalised heart failure", "setting": "Gender Female", "value": 0.97}, {"measurement": "3-point MACE: hazard ratio vs placebo", "setting": "Gender Male", "value": 1.06}, {"measurement": "3-point MACE: patients with event/patients analyzed", "setting": "Gender Male", "value": "282/2148"}, {"measurement": "Key secondary kidney outcome: hazard ratio vs placebo", "setting": "Gender Male", "value": 1.12}, {"measurement": "Key secondary kidney outcome: patients with event/patients analyzed", "setting": "Gender Male", "value": "210/2148"}, {"measurement": "Patients with event/patients analysed, hospitalised heart failure", "setting": "Gender Male", "value": "135/2148"}, {"measurement": "Hazard ratio for hospitalised heart failure", "setting": "Gender Male", "value": 0.87}, {"measurement": "Patients with event/patients analysed, hospitalised heart failure", "setting": "Glycated haemoglobin <8.0%", "value": "107/1915"}, {"measurement": "Hazard ratio for hospitalised heart failure", "setting": "Glycated haemoglobin <8.0%", "value": 0.78}, {"measurement": "Patients with event/patients analysed, hospitalised heart failure", "setting": "Glycated haemoglobin ≥8.0%", "value": "102/1579"}, {"measurement": "Hazard ratio for hospitalised heart failure", "setting": "Glycated haemoglobin ≥8.0%", "value": 1.05}, {"measurement": "3-point MACE: hazard ratio vs placebo", "setting": "Glycated hemoglobin <8.0%", "value": 0.90}, {"measurement": "3-point MACE: patients with event/patients analyzed", "setting": "Glycated hemoglobin <8.0%", "value": "229/1915"}, {"measurement": "Key secondary kidney outcome: hazard ratio vs placebo", "setting": "Glycated hemoglobin <8.0%", "value": 1.13}, {"measurement": "Key secondary kidney outcome: patients with event/patients analyzed", "setting": "Glycated hemoglobin <8.0%", "value": "186/1915"}, {"measurement": "3-point MACE: hazard ratio vs placebo", "setting": "Glycated hemoglobin ≥8.0%", "value": 1.20}, {"measurement": "3-point MACE: patients with event/patients analyzed", "setting": "Glycated hemoglobin ≥8.0%", "value": "205/1579"}, {"measurement": "Key secondary kidney outcome: hazard ratio vs placebo", "setting": "Glycated hemoglobin ≥8.0%", "value": 0.94}, {"measurement": "Key secondary kidney outcome: patients with event/patients analyzed", "setting": "Glycated hemoglobin ≥8.0%", "value": "141/1579"}, {"measurement": "3-point MACE: hazard ratio vs placebo", "setting": "History of heart failure No", "value": 1.02}, {"measurement": "3-point MACE: patients with event/patients analyzed", "setting": "History of heart failure No", "value": "275/2542"}, {"measurement": "Key secondary kidney outcome: hazard ratio vs placebo", "setting": "History of heart failure No", "value": 1.07}, {"measurement": "Key secondary kidney outcome: patients with event/patients analyzed", "setting": "History of heart failure No", "value": "252/2542"}, {"measurement": "Patients with event/patients analysed, hospitalised heart failure", "setting": "History of heart failure No", "value": "96/2542"}, {"measurement": "Hazard ratio for hospitalised heart failure", "setting": "History of heart failure No", "value": 0.92}, {"measurement": "3-point MACE: hazard ratio vs placebo", "setting": "History of heart failure Yes", "value": 1.01}, {"measurement": "3-point MACE: patients with event/patients analyzed", "setting": "History of heart failure Yes", "value": "159/952"}, {"measurement": "Key secondary kidney outcome: hazard ratio vs placebo", "setting": "History of heart failure Yes", "value": 0.95}, {"measurement": "Key secondary kidney outcome: patients with event/patients analyzed", "setting": "History of heart failure Yes", "value": "75/952"}, {"measurement": "Patients with event/patients analysed, hospitalised heart failure", "setting": "History of heart failure Yes", "value": "113/952"}]}]}
